Results as given in publication PMC7613998, “Development of selective inhibitors of phosphatidylinositol 3-kinase C2α” (Nature Chemical Biology, 2022).

Biological target: T1, PI3KC2α (Homo sapiens, UniProt O00443)
T1 construct: gene PIK3C2A; human PI3KC2α^ΔN (amino acids 376–1686)
Assay: ADP-Glo lipid kinase assay with PI as substrate
Format: biochemical

T1 sequence (O00443 376-1686): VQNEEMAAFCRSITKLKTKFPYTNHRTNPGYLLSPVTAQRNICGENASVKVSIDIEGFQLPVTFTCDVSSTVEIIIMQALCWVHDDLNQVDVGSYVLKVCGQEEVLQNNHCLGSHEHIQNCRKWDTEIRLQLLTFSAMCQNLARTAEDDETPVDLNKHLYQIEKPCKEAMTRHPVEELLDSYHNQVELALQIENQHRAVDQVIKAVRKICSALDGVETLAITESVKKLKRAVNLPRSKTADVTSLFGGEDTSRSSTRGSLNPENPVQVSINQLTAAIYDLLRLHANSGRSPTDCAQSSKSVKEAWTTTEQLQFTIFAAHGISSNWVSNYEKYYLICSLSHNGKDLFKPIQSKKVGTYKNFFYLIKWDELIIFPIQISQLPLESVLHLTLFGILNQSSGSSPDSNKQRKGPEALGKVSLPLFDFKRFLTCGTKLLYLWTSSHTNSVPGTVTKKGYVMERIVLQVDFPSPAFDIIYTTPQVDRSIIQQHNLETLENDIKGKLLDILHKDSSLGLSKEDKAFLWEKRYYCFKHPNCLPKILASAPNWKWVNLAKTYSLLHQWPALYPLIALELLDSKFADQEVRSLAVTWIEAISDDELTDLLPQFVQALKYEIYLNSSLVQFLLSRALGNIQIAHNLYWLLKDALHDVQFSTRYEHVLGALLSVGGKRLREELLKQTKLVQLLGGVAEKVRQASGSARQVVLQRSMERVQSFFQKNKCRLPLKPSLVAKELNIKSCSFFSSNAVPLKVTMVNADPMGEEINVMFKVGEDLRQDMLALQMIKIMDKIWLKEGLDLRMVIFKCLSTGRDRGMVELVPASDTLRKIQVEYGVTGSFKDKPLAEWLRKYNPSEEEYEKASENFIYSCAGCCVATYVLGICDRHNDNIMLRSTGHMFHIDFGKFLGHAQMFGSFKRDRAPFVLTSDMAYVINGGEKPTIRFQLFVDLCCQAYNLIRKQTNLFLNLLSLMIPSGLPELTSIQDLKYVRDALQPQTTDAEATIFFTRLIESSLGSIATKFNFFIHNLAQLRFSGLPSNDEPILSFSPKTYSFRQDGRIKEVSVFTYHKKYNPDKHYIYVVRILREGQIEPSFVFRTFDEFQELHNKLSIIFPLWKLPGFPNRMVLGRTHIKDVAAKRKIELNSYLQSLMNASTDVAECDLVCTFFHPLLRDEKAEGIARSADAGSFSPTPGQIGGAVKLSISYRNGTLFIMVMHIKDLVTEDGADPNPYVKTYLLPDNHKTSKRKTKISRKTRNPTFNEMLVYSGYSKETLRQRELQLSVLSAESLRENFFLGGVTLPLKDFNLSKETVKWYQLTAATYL

In the case of CC(C)CCn1c(SCC(=O)Nc2ccccc2C(F)(F)F)nc2nccnc2c1=O [compound 4], the IC50 is reported as 2600 nM.
